Experimental data: patent US20140058103A1, “Inhibitors of PI3K-Delta and Methods of Their Use and Manufacture” (Exelixis, Inc., priority 2010, published 2014)

What follows are molecules tested against PI3K delta (Homo sapiens, UniProt O00329) (assay: Luciferase-coupled chemiluminescence kinase assay (ATP consumption, KinaseGlo)).
Assay type: biochemical
How it was run: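 ATP consumption measured by KinaseGlo luciferase chemiluminescence after a 2 h reaction at ambient temperature, with ATP at or below the kinase KM. Ten inhibitor concentrations per curve; IC50 from four-parameter nonlinear regression.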

PI3K delta, sequence (O00329 whole entry): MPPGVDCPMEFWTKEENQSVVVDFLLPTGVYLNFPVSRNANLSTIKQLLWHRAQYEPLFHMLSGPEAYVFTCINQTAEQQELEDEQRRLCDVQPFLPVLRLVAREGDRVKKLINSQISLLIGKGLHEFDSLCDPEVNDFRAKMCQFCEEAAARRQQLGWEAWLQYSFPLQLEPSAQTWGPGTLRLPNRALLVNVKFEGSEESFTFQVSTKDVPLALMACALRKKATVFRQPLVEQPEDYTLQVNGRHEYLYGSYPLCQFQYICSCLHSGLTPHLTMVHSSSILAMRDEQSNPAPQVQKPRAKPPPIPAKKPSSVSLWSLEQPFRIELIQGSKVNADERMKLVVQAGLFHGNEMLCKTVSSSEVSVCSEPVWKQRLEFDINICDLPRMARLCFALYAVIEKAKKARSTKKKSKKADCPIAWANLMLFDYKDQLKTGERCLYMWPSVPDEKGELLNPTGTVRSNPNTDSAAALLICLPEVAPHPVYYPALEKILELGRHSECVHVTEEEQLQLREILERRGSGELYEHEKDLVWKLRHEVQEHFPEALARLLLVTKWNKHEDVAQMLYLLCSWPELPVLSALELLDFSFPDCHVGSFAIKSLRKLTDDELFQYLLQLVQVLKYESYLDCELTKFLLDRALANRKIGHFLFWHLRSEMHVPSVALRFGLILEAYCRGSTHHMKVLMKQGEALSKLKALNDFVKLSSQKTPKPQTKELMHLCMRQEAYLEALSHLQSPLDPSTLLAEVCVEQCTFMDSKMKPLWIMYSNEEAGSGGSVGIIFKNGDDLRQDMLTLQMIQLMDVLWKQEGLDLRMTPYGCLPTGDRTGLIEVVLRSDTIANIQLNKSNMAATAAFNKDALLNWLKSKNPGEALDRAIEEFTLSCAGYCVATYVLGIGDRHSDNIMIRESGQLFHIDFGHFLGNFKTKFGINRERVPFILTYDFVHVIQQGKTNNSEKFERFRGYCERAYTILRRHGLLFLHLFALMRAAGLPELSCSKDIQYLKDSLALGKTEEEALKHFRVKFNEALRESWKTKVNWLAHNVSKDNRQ
PI3K delta, sequence (P27986 whole entry partner): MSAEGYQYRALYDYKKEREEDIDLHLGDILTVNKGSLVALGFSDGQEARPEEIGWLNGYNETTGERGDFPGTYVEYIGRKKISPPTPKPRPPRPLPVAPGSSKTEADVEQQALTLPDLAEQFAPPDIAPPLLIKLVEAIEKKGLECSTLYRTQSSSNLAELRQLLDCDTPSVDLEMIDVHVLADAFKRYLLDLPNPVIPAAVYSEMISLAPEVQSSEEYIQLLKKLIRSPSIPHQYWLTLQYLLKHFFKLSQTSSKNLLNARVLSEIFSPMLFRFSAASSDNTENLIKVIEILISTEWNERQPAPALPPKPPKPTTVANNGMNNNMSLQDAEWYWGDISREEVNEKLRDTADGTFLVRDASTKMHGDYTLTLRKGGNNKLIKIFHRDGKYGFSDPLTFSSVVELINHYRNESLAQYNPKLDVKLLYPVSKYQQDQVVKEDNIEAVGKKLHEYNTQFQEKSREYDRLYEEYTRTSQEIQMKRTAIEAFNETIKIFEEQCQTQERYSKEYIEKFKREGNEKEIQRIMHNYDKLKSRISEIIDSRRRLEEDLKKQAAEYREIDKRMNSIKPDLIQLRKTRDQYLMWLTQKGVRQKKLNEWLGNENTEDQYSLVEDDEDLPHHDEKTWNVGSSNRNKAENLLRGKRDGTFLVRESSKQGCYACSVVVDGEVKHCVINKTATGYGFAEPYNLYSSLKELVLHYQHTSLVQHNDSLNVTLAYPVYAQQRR

Compared with Cn1c(C(=O)N[C@H]2CC[C@H](O)CC2)nc2c(N3CCC4(CC3)C(=O)Nc3ccccc34)ncnc21 [Compound 87, N-(trans-4-hydroxycyclohexyl)-9-methyl-6-(2-oxo-1,2-dihydro-1′H-spiro[indole-3,4′-piperidin]-1′-yl)-9H-purine-8-carboxamide], CCCNC(=O)c1nc2c(N3CCC4(CC3)C(=O)Nc3ccccc34)ncnc2n1C [Compound 36, 9-methyl-6-(2-oxo-1,2-dihydro-1′H-spiro[indole-3,4′-piperidin]-1′-yl)-N-propyl-9H-purine-8-carboxamide] is higher in IC50: under 50 nM for the first, 50 to 250 nM for the second.

Cc1c(-c2nc3c(N4CCC5(CC4)C(=O)Nc4ccccc45)ncnc3n2C)cnn1C [Compound 246, 1′-[8-(1,5-dimethyl-1H-pyrazol-4-yl)-9-methyl-9H-purin-6-yl]spiro[indole-3,4′-piperidin]-2(1H)-one] and Cc1[nH]ncc1-c1nc2c(N3CCC4(CC3)C(=O)Nc3ccccc34)ncnc2n1C [Compound 247, 1′-[9-methyl-8-(5-methyl-1H-pyrazol-4-yl)-9H-purin-6-yl]spiro[indole-3,4′-piperidin]-2(1H)-one] cannot be ordered by IC50: under 50 nM for the first, under 50 nM for the second.

CCc1nnc(-c2nc3c(N4CCC5(CC4)C(=O)Nc4ccccc45)ncnc3n2CC)o1 [Compound 236, 1′-[9-ethyl-8-(5-ethyl-1,3,4-oxadiazol-2-yl)-9H-purin-6-yl]spiro[indole-3,4′-piperidin]-2(1H)-one] and CCn1c(-c2nnc(C(C)C)o2)nc2c(N3CCC4(CC3)C(=O)Nc3ccccc34)ncnc21 [Compound 209, 1′-{9-ethyl-8-[5-(1-methylethyl)-1,3,4-oxadiazol-2-yl]-9H-purin-6-yl}spiro[indole-3,4′-piperidin]-2(1H)-one] cannot be ordered by IC50: under 50 nM for the first, under 50 nM for the second.

Compared with Cn1c(C(=O)N2CC[C@H](F)C2)nc2c(N3CCC(n4c(=O)[nH]c5ccccc54)CC3)ncnc21 [Compound 396, 1-[1-(8-{[(3S)-3-fluoropyrrolidin-1-yl]carbonyl)-9-methyl-9H-purin-6-yl)piperidin-4-yl]-1,3-dihydro-2H-benzimidazol-2-one], CCOC(=O)c1nc2c(N3CCC(n4c(=O)[nH]c5ccccc54)CC3)ncnc2n1C [Compound 80, Ethyl 9-methyl-6-[4-(2-oxo-2,3-dihydro-1H-benzimidazol-1-yl)piperidin-1-yl]-9H-purine-8-carboxylate] is higher in IC50: 50 to 250 nM for the first, 500 to 1500 nM for the second. The first is the more potent here.

Cn1cc(-c2nc3c(N4CCN(c5ccc(OCc6ccc7ccccc7n6)cc5)CC4)ncnc3n2C)cn1 [Compound 361, 2-{[(4-(4-[9-methyl-8-(1-methyl-1H-pyrazol-4-yl)-9H-purin-6-yl]piperazin-1-yl}phenyl)oxy]methyl)-quinoline] and Cn1cc(-c2nc3c(N4CCN(c5ccccc5CNC(=O)C5CC5)CC4)ncnc3n2C)cn1 [Compound 362, N-[(2-{4-[9-methyl-8-(1-methyl-1H-pyrazol-4-yl)-9H-purin-6-yl]piperazin-1-yl)phenyl)methyl]cyclopropane-carboxamide] fall in the same range of IC50: 500 to 1500 nM for the first, 500 to 1500 nM for the second.

Cn1c(C(=O)NCC2CC2)nc2c(N3CCN(C4=NS(=O)(=O)c5ccccc54)CC3)ncnc21 [Compound 264, N-(cyclopropylmethyl)-6-[4-(1,1-dioxido-1,2-benzisothiazol-3-yl)piperazin-1-yl]-9-methyl-9H-purine-8-carboxamide] and CN1C(=O)C2(CCN(c3ncnc4c3nc(C(=O)NCC3CC3)n4C)CC2)c2ccccc21 [Compound 141, N-(cyclopropylmethyl)-9-methyl-6-(1-methyl-2-oxo-1,2-dihydro-1′H-spiro[indole-3,4′-piperidin]-1′-yl)-9H-purine-8-carboxamide] fall in the same range of IC50: 500 to 1500 nM for the first, 500 to 1500 nM for the second.

First: Cn1cc(-c2nc3c(N4CC[C@@H](n5c(=O)[nH]c6ccccc65)[C@H](C(=O)O)C4)ncnc3n2C)cn1 [Compound 347, (3R,4R)-1-[9-methyl-8-(1-methyl-1H-pyrazol-4-yl)-9H-purin-6-yl]-4-(2-oxo-2,3-dihydro-1H-benzimidazol-1-yl)piperidine-3-carboxylic acid]
Second: Cn1cc(-c2nc3c(N4CC[C@H](c5ccccc5)[C@@H](O)C4)ncnc3n2C)cn1 [Compound 346, (3R,4R)-1-[9-methyl-8-(1-methyl-1H-pyrazol-4-yl)-9H-purin-6-yl]-4-phenylpiperidin-3-ol]
The IC50 of the first is higher: 500 to 1500 nM for the first, 250 to 500 nM for the second. The second is the more potent here.

First: CCc1nnc(-c2nc3c(N4CCC(n5c(=O)[nH]c6ccccc65)CC4)ncnc3n2C)o1 [Compound 114, 1-{1-[8-(5-ethyl-1,3,4-oxadiazol-2-yl)-9-methyl-9H-purin-6-yl]piperidin-4-yl}-1,3-dihydro-2H-benzimidazol-2-one]
Second: Cn1c(-c2ccncn2)nc2c(N3CCC(n4c(=O)[nH]c5ccccc54)CC3)ncnc21 [Compound 298, 1-[1-(9-methyl-8-pyrimidin-4-yl-9H-purin-6-yl)piperidin-4-yl]-1,3-dihydro-2H-benzimidazol-2-one]
The IC50 of the first is lower: under 50 nM for the first, 250 to 500 nM for the second. The first is the more potent here.

First: Cn1c(C(=O)NCC2CC2)nc2c(N3CCC4(CC3)c3ccccc3CC4O)ncnc21 (stereo not drawn) [Compound 130, N-(cyclopropylmethyl)-6-(2-hydroxy-2,3-dihydro-1′H-spiro[indene-1,4′-piperidin]-1′-yl)-9-methyl-9H-purine-8-carboxamide]
Second: Cn1c(C(=O)NCC2CC2)nc2c(N3CCC4(CC3)C(=O)NCC4c3ccccc3)ncnc21 (stereo not drawn) [Compound 99, N-(cyclopropylmethyl)-9-methyl-6-(1-oxo-4-phenyl-2,8-diazaspiro[4.5]dec-8-yl)-9H-purine-8-carboxamide]
The IC50 of the first is lower: 50 to 250 nM for the first, 500 to 1500 nM for the second. The first is the more potent here.

First: CC(C)CNC(=O)c1nc2c(N3CCC4(CC3)C(=O)Nc3ccccc34)ncnc2n1C [Compound 34, 9-methyl-N-(2-methylpropyl)-6-(2-oxo-1,2-dihydro-1′H-spiro[indole-3,4′-piperidin]-1′-yl)-9H-purine-8-carboxamide]
Second: CC(C)NC(=O)c1nc2c(N3CCC4(CC3)C(=O)Nc3ccccc34)ncnc2n1C [Compound 24, 9-methyl-N-(1-methylethyl)-6-(2-oxo-1,2-dihydro-1′H-spiro[indole-3,4′-piperidin]-1′-yl)-9H-purine-8-carboxamide]
The IC50 of the first is lower: under 50 nM for the first, 50 to 250 nM for the second. The first is the more potent here.

First: CCn1c(C(=O)NCCCCO)nc2c(N3CCC4(CC3)C(=O)Nc3ccccc34)ncnc21 [Compound 222, 9-ethyl-N-(4-hydroxybutyl)-6-(2-oxo-1,2-dihydro-1′H-spiro[indole-3,4′-piperidin]-1′-yl)-9H-purine-8-carboxamide]
Second: Cn1c(C(=O)NCC2CC2)nc2c(N3CCC4(C3)C(=O)Nc3ccccc34)ncnc21 (stereo not drawn) [Compound 98, N-(cyclopropylmethyl)-9-methyl-6-(2-oxo-1,2-dihydro-1′H-spiro[indole-3,3′-pyrrolidin]-1′-yl)-9H-purine-8-carboxamide]
The IC50 of the first is lower: 50 to 250 nM for the first, 500 to 1500 nM for the second.

First: Cc1ccc(CCNC(=O)c2nc3c(N4CCC(n5c(=O)[nH]c6ccccc65)CC4)ncnc3n2C)cc1 [Compound 64, 9-methyl-N-[2-(4-methylphenyl)ethyl]-6-[4-(2-oxo-2,3-dihydro-1H-benzimidazol-1-yl)piperidin-1-yl]-9H-purine-8-carboxamide]
Second: Cn1c(C(=O)NCCCCO)nc2c(N3CCC(n4c(=O)[nH]c5ccccc54)CC3)ncnc21 [Compound 42, N-(4-hydroxybutyl)-9-methyl-6-[4-(2-oxo-2,3-dihydro-1H-benzimidazol-1-yl)piperidin-1-yl]-9H-purine-8-carboxamide]
The IC50 of the first is higher: 500 to 1500 nM for the first, 50 to 250 nM for the second. The second is the more potent here.

Cn1c(-c2cn[nH]c2-c2ccccc2)nc2c(N3CCC(n4c(=O)[nH]c5ccccc54)CC3)ncnc21 [Compound 286, 1-{1-[9-methyl-8-(5-phenyl-1H-pyrazol-4-yl)-9H-purin-6-yl]piperidin-4-yl}-1,3-dihydro-2H-benzimidazol-2-one] and Cn1c(-c2c[nH]c3ncccc23)nc2c(N3CCC(n4c(=O)[nH]c5ccccc54)CC3)ncnc21 [Compound 301, 1-{1-[9-methyl-8-(1H-pyrrolo[2,3-b]pyridin-3-yl)-9H-purin-6-yl]piperidin-4-yl}-1,3-dihydro-2H-benzimidazol-2-one] cannot be ordered by IC50: under 50 nM for the first, under 50 nM for the second.

First: Cn1c(-c2ccc(O)nc2)nc2c(N3CCC(n4c(=O)[nH]c5ccccc54)CC3)ncnc21 [Compound 300, 1-{1-[8-(6-hydroxypyridin-3-yl)-9-methyl-9H-purin-6-yl]piperidin-4-yl}-1,3-dihydro-2H-benzimidazol-2-one]
Second: Cn1c(-c2ccnnc2)nc2c(N3CCC(n4c(=O)[nH]c5ccccc54)CC3)ncnc21 [Compound 280, 1-[1-(9-methyl-8-pyridazin-4-yl-9H-purin-6-yl)piperidin-4-yl]-1,3-dihydro-2H-benzimidazol-2-one]
The IC50 of the first is higher: 500 to 1500 nM for the first, 50 to 250 nM for the second. The second is the more potent here.

Compared with Cn1c(C(=O)NCC2CC2)nc2c(N3CCC(N4C(=O)NCc5ccccc54)CC3)ncnc21 [Compound 248, N-(cyclopropylmethyl)-9-methyl-6-[4-(2-oxo-3,4-dihydroquinazolin-1(2H)-yl)piperidin-1-yl]-9H-purine-8-carboxamide], Cn1c(C(=O)NCC2CC2)nc2c(N3CCC(n4c(=O)[nH]c5cc(F)ccc54)CC3)ncnc21 [Compound 205, N-(cyclopropylmethyl)-6-[4-(5-fluoro-2-oxo-2,3-dihydro-1H-benzimidazol-1-yl)piperidin-1-yl]-9-methyl-9H-purine-8-carboxamide] is lower in IC50: 250 to 500 nM for the first, 50 to 250 nM for the second. The second is the more potent here.

First: Cn1cc(-c2nc3c(N4CCN(S(=O)(=O)c5ccc(Cl)cc5Cl)CC4)ncnc3n2C)cn1 [Compound 392, 6-{4-[(2,4-dichlorophenyl)sulfonyl]piperazin-1-yl}-9-methyl-8-(1-methyl-1H-pyrazol-4-yl)-9H-purine]
Second: CCn1c(-c2cnc(OC)nc2)nc2c(N3CCC(n4c(=O)[nH]c5ccccc54)CC3)ncnc21 [Compound 306, 1-(1-{9-ethyl-8-[2-(methyloxy)pyrimidin-5-yl]-9H-purin-6-yl}piperidin-4-yl)-1,3-dihydro-2H-benzimidazol-2-one]
The IC50 of the first is higher: 500 to 1500 nM for the first, under 50 nM for the second. The second is the more potent here.

Work on Cn1c(C(=O)NCC(F)(F)F)nc2c(N3CCC(n4c(=O)[nH]c5ncccc54)CC3)ncnc21 [Compound 319, 9-methyl-6-[4-(2-oxo-2,3-dihydro-1H-imidazo[4,5-b]pyridin-1-yl)piperidin-1-yl]-N-(2,2,2-trifluoroethyl)-9H-purine-8-carboxamide] yielded an IC50 of under 50 nM.
